# Measured values reported in publication PMC11311821, “Biochemical Characterisation of Sis: A Distinct Thermophilic PETase with Enhanced NanoPET Substrate Hydrolysis and Thermal Stability” (International Journal of Molecular Sciences, 2024).
# Test system: Sis
# Assay: spectrophotometric p-nitrophenol release at […] nm
# Type: biochemical, metagenome: geothermal site (36 °C, pH 9.8)
# Conditions: optimal conditions of pH and temperature (sodium-phosphate pH 7.0, 70 °C)
compound,measurement,value
CCCC(=O)Oc1ccc([N+](=O)[O-])cc1 [pNP-butyrate],Km,80 ± 10 µM
